From patent publication US11554084B2, “Compositions incorporating avobenzone-calix[8]-PO3H2 complex” (University of Cincinnati, priority 2020, dated 2023)

Columns and labels:
[1] = Neutron reflectometry (NR) of tethered POPC / POPC-d31 lipid bilayer membranes incubated with the substance and after rinse; assay type: physicochemical; settings: for Peak of avobenzone CVO from bilayer center / Surface volume density: co-refined POPC-d31 and POPC
Method: The interaction of avobenzone and calix[8]-PO3H2 was tested with single-membrane POPC (1-palmitoyl-2-oleoyl-sn-glycero-3-phosphocholine) tethered lipid bilayer membranes (tBLMs). Solvent-immersed tBLMs allowed for a characterization of the membrane before and after addition of avobenzone and calix[8]-PO3H2 from solution, thus mimicking the encounter of those substances by the membrane in the body. This differentiates tBLMs from conventionally used stacked lipid bilayer model systems in air. The chemical structure of the glycerophospholipid POPC consists of a zwitterionic phosphatidylcholine headgroup linked to a glycerol, which is ester-bound to two fatty acid groups—palmitic acid (C16:0) and oleic acid (C18:1). This fatty acid composition mimics that of phospholipids mainly found in the eukaryotic cell membrane, including keratinocytes. In addition to phospholipids, native eukaryotic membranes also contain glycolipids, sterols and various proteins, which are not included in the current simplified model system.
Neutron Reflectometry (NR) experiments were conducted with hydrogenated and deuterated POPC bilayers. Both data sets were simultaneously analyzed to obtain one structural model. NR measurements were performed with the CGD-Magik reflectometer at the NIST Center for Neutron Research (NCNR). Reflectivity curves were recorded for momentum transfer values 0.01≤qz≤0.25 Å^−1. For each measurement, adequate counting statistics were obtained after 5-7 h. The NCNR fluids cell allows for in situ solvent exchange; therefore, subsequent measurements were performed on the same sample area. The entire flow cell was maintained at room temperature (RT). Solvent exchange was accomplished by rinsing ˜10 ml of water through the cell (volume ˜1.3 ml) using a syringe.
A set of NR experiments was conducted with a hydrogenated POPC bilayer and another identical set of experiments with a deuterated POPC-d31 bilayer. After measurement of the as-prepared bilayer in H2O and D2O, avobenzone was added to the sample cell at a concentration of 100 μM dissolved in H2O and D2O. NR measurements were conducted while the bilayer was in contact with either solution. The sample was measured again after rinsing with H2O and D2O, respectively. Data for both bilayers were co-refined sharing conserved model parameters across data sets, in particular those associated with the volume profile of avobenzone. […] An identical set of measurements were performed with a 100 μM complex of 1:1 avobenzone:calix[8]-PO3H2 instead of pure avobenzone.
1D-component volume occupancy (CVO) profiles along the lipid bilayer normal were obtained. Bilayer fit parameters were the hydrocarbon thickness for each bilayer subsection, the bilayer completeness, and the thickness of the sub-membrane space. One roughness parameter was applied to all distributions. The thin layer of native silicon oxide was modelled by a single distribution with individual roughness and thickness parameters. Hermite splines defined by control points that were on average 15 Å apart were used to model the CVO profiles of avobenzone and calix[8]-PO3H2. The number of control points was iteratively refined during model optimization for each CVO profile. Fit parameters associated with each control point were a volume occupancy, a deviation from equidistant separation, and (for the CVO profile of the complex) a nSLD (neutron scattering length density) value between those of avobenzone and calix[8]-PO3H2. Such a variable nSLD per control point allowed us to separate individual CVO profiles for avobenzone (average nSLD ρ=1.37×10^−6 Å^−2) and calix[8]-PO3H2 (ρ=2.73×10^−6 […]). The exchange of labile protons in isotopically different buffers affects the nSLD of molecular components and was taken into account during data analysis. Optimization of model parameters was performed using the ga_refl and Refl1D software packages developed at the NCNR. […]

[2] = once exposed to sun; cited from earlier work
[3] = system: rat cell lines; settings: cited from earlier work
[4] = system: human cell lines; settings: cited from earlier work
[5] = avobenzone alone, 100 μM incubation

Compound	Peak of avobenzone CVO from bilayer center [1, 5] [Å]	Surface volume density [1, 5] [Å^3/Å^2]	1 avobenzone per n lipids in outer leaflet ([1]; avobenzone alone, Rinse)	Peak of avobenzone CVO from bilayer center ([1]; avobenzone alone, Rinse) [Å]	Surface volume density ([1]; avobenzone alone, Rinse) [Å^3/Å^2]	Penetration of the lipid bilayer (in words) ([1]; interacts at hydrocarbon/headgroup interface of the substrate-distal leaflet)	Duration of photoprotection [2] [min]	Toxicity towards rat cell lines [3]	Toxicity towards human cell lines [4]
COc1ccc(C(=O)CC(=O)c2ccc(C(C)(C)C)cc2)cc1 [avobenzone, 1-(4-methoxyphenyl)-3-(4-tertbutylphenyl)-propane-1,3-dione]	10±3	3.0±0.5	~1 avobenzone per 2.1 lipids in outer leaflet	7±3	3.8±0.4	without penetrating the bilayer to the substrate-proximal leaflet	30		
O=P(O)(O)c1cc2c(O)c(c1)Cc1cc(P(=O)(O)O)cc(c1O)Cc1cc(P(=O)(O)O)cc(c1O)Cc1cc(P(=O)(O)O)cc(c1O)Cc1cc(P(=O)(O)O)cc(c1O)Cc1cc(P(=O)(O)O)cc(c1O)Cc1cc(P(=O)(O)O)cc(c1O)Cc1cc(P(=O)(O)O)cc(c1O)C2 [calix[8]-PO3H2, p-phosphonated calix[8]arene]								non-toxic	non-toxic
